Laboratory results published in a melting point compilation (Tetko et al.; mined from patent text by program, amines drawn as free bases though some values may be those of a salt).

Point of comparison: CCN1CCCC(c2ccc(OC)c(OC)c2)C1 (stereo not given), melting point 50 °C. Against it:
- COc1ccc(C(=O)Nc2ccc(F)c(F)c2)cc1NS(=O)(=O)c1cc(Cl)cc(Cl)c1 — higher, 228 to 231 °C
- O=[N+]([O-])c1cnn(-c2c(Cl)cc(C(F)(F)F)cc2Cl)c1Cl — higher, 80 to 84 °C
- CNS(=O)(=O)Nc1ncccc1C(=O)OC — higher, 133 to 139 °C
- CC(=O)OC1CSC(Oc2cccc(-c3cn(C)nc3C(F)(F)F)c2)C(OC(C)=O)C1OC(C)=O (stereo not given) — higher, 131 to 133 °C
- CC1CC(=O)NN=C1c1ccc(O)cc1 (stereo not given) — higher, 268 to 273 °C
- O=C1N[C@H](Cc2ccc(C(F)(F)F)cc2)[C@H](c2cccc3ccccc23)O1 (racemic) — higher, 202 to 203 °C
- [N-]=[N+]=NCC1OC(n2c(N=[N+]=[N-])nc3c(N)ncnc32)C(O)C1O (stereo not given) — higher, 128 to 130 °C
- CON1CCC(C2NC(=O)C(c3c(C)cc(C)cc3C)=C2O)CC1 (stereo not given) — higher, 206 to 209 °C
- Cc1nc2cc3c(cc2c(=O)[nH]1)OCCO3 — higher, 275 °C
- Cc1oc(-c2ccccc2)nc1CCC#N — higher, 63 to 64 °C
- CC(C)(C)c1cc(C=CC#N)cc(C(C)(C)C)c1O — higher, 109 to 113 °C
- Cc1cccc(NC(=O)c2cc(=O)[nH]c3ccc(C(=O)c4ccc(Cl)cc4)cc23)c1 — higher, 230 °C
- COc1cc(Nc2nc3cccc(-c4cccc(N)c4)c3o2)cc(OC)c1OC — higher, 145 to 170 °C
- CCOC(=O)c1sc(OCC)nc1-c1ccccc1 — lower, 32 to 34 °C
- Cc1ccc(C2(Cn3cncn3)OCCO2)cc1Br — higher, 121 °C
- Cc1ccnc2c1N=C(Cl)c1cccnc1N2C1CC1 — higher, 196 to 198 °C
- CCOC(=O)Nc1ncc(-c2nc3ccccc3c(=O)n2-c2cccc(OC)c2)s1 — higher, 235 to 236 °C
- CCOC(=O)CCc1cc(F)c(N2CCNCC2)nc1Nc1ccc(F)cc1F — higher, 121 to 123 °C
- COc1ccc2c(c1OC)CC[C@H]1[C@H]2CCCN1CCc1ccccc1 (relative stereo) — higher, 110 to 111 °C
- CCn1ncc2c3c(cnc21)C(N)(OC)N=C1N=CNN13 (stereo not given) — higher, 215 to 216 °C
- Nc1cc(=O)n(Cc2ccc(-c3ccccc3)cc2)[nH]1 — higher, 185 to 186 °C
- CN(C)c1ccc([N+](=O)[O-])c(C#N)c1 — higher, 174 to 175 °C
- NC(=O)CCN1CCCCC1 — higher, 105 to 107 °C
- O=C(O)c1cccc2c(=O)c3cc([N+](=O)[O-])ccc3[nH]c12 — higher, 375 °C
- COC(=O)c1cc2c3c(Cl)cc(Cl)cc3n(C)c2s1 — higher, 231 to 232 °C
- Nc1cc(-c2ccccc2)c(S(N)(=O)=O)cc1S(N)(=O)=O — higher, 197 to 198 °C
- O=C(O)C1Oc2cc(Cl)c(S(=O)(=O)c3cccc(F)c3)cc2O1 (stereo not given) — higher, 161 to 163 °C
- CCCOc1ccccc1-c1nc2nc(N3CCOCC3)ncc2c(=O)[nH]1 — higher, 176 to 177 °C
- CC1C(=O)Oc2c1cccc2S(=O)(=O)c1ccccc1Cl (stereo not given) — higher, 94 to 96 °C
- Nc1n[nH]c2cc(C(F)(F)F)ccc12 — higher, 168 to 169 °C
- COc1ccc(C#CCO)c2c1c(CCN(C)C)cn2C — higher, 101 to 104 °C
- Cc1cc(-n2ccnc2)c2cccc(OCc3c(Cl)ccc(S(=O)(=O)N4CCC[C@H]4C(=O)O)c3Cl)c2n1 — higher, 172 °C
- C[C@@H]1N[C@@H](c2ccc(C#N)cc2)[C@H]2C(=O)N(Cc3ccccc3)C(=O)[C@H]21 (racemic) — higher, 169 to 170 °C
- CN1C(=O)C2C3Oc4ccccc4OC3=C3C(Oc4cccnc4N3C(=O)Oc3ccccc3)C2C1=O (stereo not given) — higher, 245 °C
- CC(=N)Nc1ccc(NC(C)=O)cc1 — higher, 131 to 134 °C
- CN(C=O)C1CCC(=O)c2ccccc21 (single isomer, unassigned; (+)) — higher, 92 to 93 °C
- Nc1nc(C2CCN(C(=O)c3ccccc3)CC2)c2ccccc2n1 — higher, 138 °C
- COc1ccc(C2(O)c3cccc(O)c3C(=O)c3c(O)cccc32)cc1 — higher, 172 to 173 °C
- Cc1cc(C2=NOC(c3cc(Cl)cc(Cl)c3)(C(F)(F)F)C2)ccc1C(=O)Nc1ncc(C#N)cn1 (stereo not given) — higher, 118 to 121 °C
- Nc1cc(Br)cc(Br)c1N — higher, 78 to 80 °C
- Cc1cc(C)cc(-c2cnn3c(-c4cccc(C#N)c4)ccnc23)c1 — higher, 147 °C
- CCOC(=O)c1ccc2nccc(O)c2c1 — higher, 233 to 234 °C
- CCO[C@H]1CCN(C(=O)c2cc(-c3ccccc3)c(=O)n3c2-c2cc(Cl)ccc2CC3)C1 — higher, 134 to 136 °C
- COC(=O)c1cc(-c2ccc(=O)n(C(C)C)n2)c(-c2ccccc2)nc1OCC(N)=O — higher, 183 to 184 °C
- COc1ccc(OCc2ccc(C(=O)c3ccccc3)cc2)cc1OC — higher, 74 to 75 °C
- COC(=O)c1ccc(COc2ccc(-c3ncccc3S(=O)(=O)N(C(=O)OCC(C)C)c3ncc(C)nc3OC)cc2)cc1 — higher, 134 to 135 °C
- COc1ccc(-c2cc(=O)c3c(O)cc(O)cc3o2)cc1OCC(O)CO (stereo not given) — higher, 215 to 218 °C
- CCOC(=O)c1cn(CCC(C)C)c2nn(C)cc2c1=O — higher, 105 to 106 °C
- COc1cc(O)c(C(=O)CCc2ccc3occc3c2)cc1C(O)C1OC(C(=O)C(C)C(=O)O)C(O)C(O)C1O (stereo not given) — higher, 113 to 114 °C
- COc1cc(N)c2cc[nH]c2c1 — higher, 83 to 86 °C
- ClCc1cccc(-c2nnn[nH]2)c1 — higher, 152 to 154 °C
- O=C(Cc1noc2ccccc12)NS(=O)(=O)c1ccccc1 — higher, 171 to 172 °C
- CC(C(=O)O)c1ccc(C(=O)c2ccco2)cc1 (stereo not given) — higher, 86 to 88 °C
- NC(=O)N(O)C[C@H]1C[C@@H](c2ccc(C(F)(F)F)cc2)C1 — higher, 144 to 146 °C
- CC(=O)C=Cc1ccc2c(c1)Cc1ccccc1-2 — higher, 146 to 148 °C
- FC(F)(F)c1cccc(-c2cnnn2-c2cc(Cl)ccc2OCc2nnn[nH]2)c1 — higher, 181 to 184 °C
- COC(=O)C(N)Cc1ccc(Oc2ccc(O)cc2)cc1 (stereo not given) — higher, 123 to 124 °C
- Cc1ccc(-n2cc(C(=O)O)c(=O)c3cc(F)c(F)c(F)c32)cc1 — higher, 110 to 111 °C
- CCCCCCCCCCCC(=O)OC(OC(=O)N1CCN(c2cc3c(cc2F)c(=O)c(C(=O)O)cn3CC)CC1)C(=O)OC(C)C (stereo not given) — higher, 106 to 109 °C
- COc1ccc2c(c1)c(-c1ccccc1)cc(=O)n2Cc1c(Cl)cncc1Cl — higher, 191 to 192 °C
- COC(=O)c1nc2cc(C)cc(Cl)c2c(O)c1C(=O)OC — higher, 197 to 199 °C
- O=C(O)c1cn(-c2ccc(F)cc2)c(-c2ccc(O)cc2)cc1=O — higher, 185 to 193 °C
- Cc1c2c(c(C)c3c1NCC3)OC(C)(C)C2 — higher, 105 to 107 °C
- CCn1c(C)nc2cc(C(F)(F)F)c(Cl)c(N)c21 — higher, 176 to 178 °C
- CC(=O)NC1=NN(c2ccccc2)CC1 — higher, 190 to 191 °C
- CC(C)(C)CNc1nc(Cl)cc(NC(C)(C)C)n1 — higher, 115 to 119 °C
- O=Cc1ccc2c(ccc3c4ccccc4ccc23)c1 — higher, 215 to 216 °C
- CCCc1c(OCC(=O)OC)ccc2c1OC(CCCCCCO)CC2=O (stereo not given) — higher, 93 to 94.5 °C
- O=C(O)c1ccnc(-c2cccc3cc(Cc4cccc(C(F)(F)F)c4)sc23)c1 — higher, 231 to 232 °C
- CCNCCn1c(-c2ccc(Br)cc2)cc2c1CCSC2 — higher, 84 to 85 °C
- CCCSC(=S)N1C(CO)Cc2c([nH]c3ccccc23)C1C (stereo not given) — higher, 115 to 118 °C
- COc1ccc(-c2cc(C(C)(C)C)sc2-c2ccc(OC)cc2)cc1 — higher, 112 to 115 °C
- COc1cc(C(C)=O)ccc1OCCCN1CCC(C(O)(c2ccc(F)c(F)c2)c2ccc(F)c(F)c2)CC1 — higher, 143 to 146 °C
- CCOC(=O)CC(=O)c1cc(F)c(S(=O)(=O)CC)nc1Nc1ccc(F)cc1F — higher, 113 to 114 °C
- O=c1c2ccccc2nc(CCl)n1-c1cccc(Cl)c1 — higher, 202 to 205 °C
- CCOC(=O)c1ncc(C)nc1O — higher, 153 °C
- CCCOc1cc(OCCC)c2c(C)c(CCCl)c(=O)oc2c1 — higher, 99 to 101 °C
- CCCCc1oc2ccccc2c1-c1ncc(-c2ccc3cc(OCC(=O)O)ccc3c2)o1 — higher, 214 to 216 °C
- CCc1nc2c(N)nc3cc(-c4cccnc4)ccc3c2n1CC(C)(C)O — higher, 245 to 247 °C
- CNC(=O)SC(C(=O)O)c1ccccc1 (stereo not given) — higher, 128 to 129 °C
- O[C@@H]1CN(Cc2ccccc2)C[C@H]1Sc1ccccc1 (relative stereo) — higher, 97 to 99 °C
- CCCCCCCCCCOc1ccc(C(=O)Nc2cc(CCC(=O)CC3CCCCCC3)ccc2C(C)(C)C)cc1 — higher, 98 to 99 °C
- CCS(=O)c1ccc(-c2coc3ccc(-c4nnc(C)o4)cc23)c(Cl)c1 (stereo not given) — higher, 151 to 152 °C
- CCCCC1=C(/C=C/C(=O)Oc2ccc([N+](=O)[O-])cc2)CCc2cc(OC)ccc21 — higher, 94 to 95 °C
- CCC(Oc1ccc(S(=O)(=O)c2ccc(C)nc2Nc2c(C)cc(C)cc2C)cc1)C(=O)OC (stereo not given) — higher, 111 to 113 °C
- Cc1ccc(-c2ccccc2-c2nnn[nH]2)cc1 — higher, 148 to 150 °C
- OC(c1cc(Cl)cc(Cl)c1)c1cc(Cl)cc(Cl)c1 — higher, 126 °C
- CC(C)Oc1ccc(CCCOc2cc(CCC(=O)O)n(-c3ccccc3)n2)c(OCc2ccc(C(F)(F)F)cc2)c1 — higher, 118 to 119 °C
- O=C1C2=C(CCCC2)C(=O)N1c1ccc(Cl)c2c1CC(CO)O2 (stereo not given) — higher, 193 to 195 °C
- COc1cc(F)ccc1OCCN1C(=O)c2ccccc2C1=O — higher, 102 to 104 °C
- COc1ccc(C2=NN(c3ccc(CC(=O)N4CCOCC4)cc3)C(=O)C(C)(C)C2)cc1OC — higher, 165 to 167 °C
- CCOc1nc2c(N)nc3cccnc3c2n1[C@@H](C)c1ccccc1 — higher, 187 to 190 °C
- CCCCCCCCC(Oc1ccc(C(=O)CCCCCCC)cc1)C(=O)O (racemic) — lower, 45 to 47 °C
- CCOC(=O)C(C)Oc1ncn(-c2cccc(C(F)(F)F)c2)n1 (stereo not given) — higher, 100 to 102 °C
- N#CCCNC(=O)c1n[nH]cc1NC(=O)c1cccc(C(F)(F)F)c1 — higher, 188 to 190 °C
- CN1C(=O)CSC(c2cccc(Cl)c2)c2cc(C(N)(c3ccc(Cl)cc3)c3cncn3C)ccc21 (stereo not given) — higher, 218 °C
- COc1ccc(-c2ccc(NC(=O)CCc3ccc(CN4CCCC4)cc3)cc2)cc1 — higher, 185 to 188 °C
- COc1ccc2[nH]cc(CCCN(CC3CC3)C3COc4c(F)ccc(C(N)=O)c4C3)c2c1 (stereo not given) — higher, 148 to 154 °C
- CCc1nn2ccc3oc(C)cc3c2c1CCNC(C)=O — higher, 128 to 129 °C
